Data on two compounds can be found in paper doi:10.64898/2025.12.04.692396, “Mechanisms of ligand recognition and channel opening for P2X2 receptors in lipid nanodiscs” (bioRxiv, 2025).

Assay type in all cases: cell-based
Experiment [1] concerns the target T1, hP2X2R (human P2X2 receptor) (Homo sapiens, UniProt Q9UBL9, R130E).
T1 construct: gene P2RX2; hP2X2-L
T1 sequence (Q9UBL9 1-471 R130E): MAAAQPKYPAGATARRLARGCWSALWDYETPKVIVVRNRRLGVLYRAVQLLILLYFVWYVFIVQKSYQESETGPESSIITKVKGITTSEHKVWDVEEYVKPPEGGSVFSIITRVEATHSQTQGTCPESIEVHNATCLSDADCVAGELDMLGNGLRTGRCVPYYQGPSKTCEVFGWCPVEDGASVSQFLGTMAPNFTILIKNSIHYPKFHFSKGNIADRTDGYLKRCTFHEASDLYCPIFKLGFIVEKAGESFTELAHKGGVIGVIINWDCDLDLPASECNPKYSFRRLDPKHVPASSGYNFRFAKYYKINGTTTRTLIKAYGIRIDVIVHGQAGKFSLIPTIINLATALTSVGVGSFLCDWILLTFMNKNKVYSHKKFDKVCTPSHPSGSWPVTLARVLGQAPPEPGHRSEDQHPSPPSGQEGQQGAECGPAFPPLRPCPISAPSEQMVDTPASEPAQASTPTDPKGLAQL
Put plainly: whole-cell patch clamp in HEK293 cells, EDTA solution.

For experiment [2], the target named is T2, hP2X2R (human P2X2 receptor) (Homo sapiens, UniProt Q9UBL9, R130A).
T2 construct: gene P2RX2; hP2X2-L
T2 sequence (Q9UBL9 1-471 R130A): T1 sequence (Q9UBL9 1-471 R130E) with E130A
The description is as above.

The target of experiment [3] is T3, hP2X2R (human P2X2 receptor) (Homo sapiens, UniProt Q9UBL9).
T3 construct: gene P2RX2; hP2X2-L (Q9UBL9-1) with ATP4−; hP2X2-S (Q9UBL9-2) with Mg-ATP2−; homotrimer in MSP1E3D1 lipid nanodiscs
T3 sequence (Q9UBL9 1-404 isoform Q9UBL9-2): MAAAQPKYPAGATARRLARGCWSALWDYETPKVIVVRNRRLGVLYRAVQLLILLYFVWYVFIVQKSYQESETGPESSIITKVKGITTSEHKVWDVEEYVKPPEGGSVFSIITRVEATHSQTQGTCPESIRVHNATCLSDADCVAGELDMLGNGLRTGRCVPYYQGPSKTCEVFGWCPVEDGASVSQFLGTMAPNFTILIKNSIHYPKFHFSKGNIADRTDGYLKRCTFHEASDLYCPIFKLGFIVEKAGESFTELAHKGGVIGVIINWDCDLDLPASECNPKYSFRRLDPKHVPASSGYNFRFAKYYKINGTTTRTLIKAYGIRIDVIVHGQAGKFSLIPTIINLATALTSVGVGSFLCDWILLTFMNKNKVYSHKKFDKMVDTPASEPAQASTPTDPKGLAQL
Put plainly: cryo-EM structure in nanodiscs; whole-cell patch clamp EC50 in EDTA ([…] with divalent cations).

Experiment [4] addresses T4, hP2X2R (human P2X2 receptor) (Homo sapiens, UniProt Q9UBL9).
T4 construct: gene P2RX2; hP2X2-L
T4 sequence (Q9UBL9 1-471): T1 sequence (Q9UBL9 1-471 R130E) with E130R

Experiment [5] deals with T2, hP2X2R (human P2X2 receptor).

Each structure is given as a SMILES string. Positions count from the first letter of the chain named.

Take `Nc1ncnc2c1ncn2[C@@H]1O[C@H](COP(=O)(O)OP(=O)(O)OP(=O)(O)O)[C@@H](O)[C@H]1O` [ATP]: the concentration giving a half-maximal response (EC50) in experiment [1] worked out at 4 ± 0.9 µM; in experiment [2], 3.7 ± 0.9 µM; in experiment [3] it was 1.4 ± 0.4 µM.

For the compound `Nc1ncnc2c1ncn2[C@@H]1O[C@H](COP(=O)(O)CP(=O)(O)OP(=O)(O)O)[C@@H](O)[C@H]1O` [α,β-Methylene-ATP], the “whole-cell patch clamp in HEK293 cells (weak activation)” value in experiment [4] and in experiment [5] was “α,β-Methylene-ATP could only weakly activate either WT hP2X2 or the R130A mutant” in each case.
